Test results from patent publication US7393818B2 (priority 2003, dated 2008).

Columns and labels:
[1] = target: Scrapie (sheep) prion protein (Ovis aries, UniProt P23907)
[2] = tested on: prions; settings: reported in literature; cited from earlier work

Chain of Scrapie (sheep) prion protein (P23907 25-233 limits assumed): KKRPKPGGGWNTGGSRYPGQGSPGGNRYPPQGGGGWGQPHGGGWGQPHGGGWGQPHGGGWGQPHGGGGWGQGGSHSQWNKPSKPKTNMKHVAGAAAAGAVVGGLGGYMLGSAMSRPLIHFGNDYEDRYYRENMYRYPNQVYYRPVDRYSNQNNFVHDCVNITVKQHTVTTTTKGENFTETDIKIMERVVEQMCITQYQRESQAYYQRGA

With `OO` [7% Hydrogen Peroxide, hydrogen peroxide] the “effect on the percentage of samples showing presence of prion” value ([1]; in the period of the test (one hour soak)) was “no effect” and the “Percentage of Samples Tested where Prion (Scrapie) is Detected” value ([1]; wires soaked for one hour) was 100%.
In the case of `O=CCCCC=O` [Glutaraldehyde], the effectiveness against prions [2] is listed as “ineffective”.
In the case of `C1CO1` [ethylene oxide], the effectiveness against prions [2] is listed as “ineffective”.
In the case of `OO` [hydrogen peroxide], the effectiveness against prions [2] is listed as “ineffective”.
